Series [1] has as its system Metastatic colon cancer (SW620) MTS cells. The experiment in a line: Single agent treatment of metastatic colon cancer MTS cells. In kind it is cell-based, human. The conditions noted are these: 5 days, 5-fluorouracil 2.5 μM, Gemcitabine 5 μM.
Protocol: Metastatic MTS colon cancer (SW620) were treated for 24 hours with extract samples 1 (moss), 2 (moss), 4 (moss), 6 (moss), 5 (moss), 7 (fern), 8 (fern), 9 (moss), all at 50 mg/mL, and for 5 days with the standard chemotherapeutics 5-fluorouracil at 2.5 μM and Gemcitabine at 5 μM.
Metastatic colon cancer (SW620) MTS cells were treated for 24 hours with extract samples 12 (moss), 13 (fern), 14 (lichen), all at 50 mg/mL, and for 5 days with the standard chemotherapeutics 5-fluorouracil at 2.5 μM and Gemcitabine at 5 μM.
The subject of series [2] is GBM monolayer culture (ATCC crl-2020). The conditions noted are these: for Viability: GBM monolayer, 12 hours at 38° C., carmustine 50 μM, curcumin 20 μM, CAPE 20 μM, ABA 400 μM, extract sample 19 10 mg/mL. From the text: (§1) Carmustine, berberine, curcumin, caffeic acid phenyl ester (CAPE), abscisic acid and a extract sample 19 (fern) were used, singly and in various combinations, to assess their potential effectiveness in promoting in vitro cell death responses in a malignant GBM cell line (ATCC crl-2020). Two different culture models were used in these experiments. The majority of vertebrate cells cultured in vitro grow as monolayers on an artificial substrate, as is the case with GBM cells. Live cells attach to the bottom of a tissue culture plate where they proliferate until the surface is confluent with cells. […] The three dimensional structure of solid tumors makes such tumors more resistant to treatment than a GBM cell monolayer culture. To more closely approximate in vivo conditions a multi-cellular tumor spheroid (MTS) model was used. In this model GBM cells were cultured on a 1% agarose matrix in a 24 well tissue culture dish to form multi cellular aggregates. […] Trypan blue staining and microscopic observation was used to assess cell viability after treatment.
A GBM monolayer culture plate was treated with moderately low concentrations of carmustine (50 μM dose); curcumin (20 μM dose); CAPE (20 μM dose); ABA (400 μM dose) and extract sample 19 (10 mg/mL dose). The treated cultures were incubated for 12 hours at 38° C. and assayed. The dosing conditions were sub-optimal dosing conditions designed to allow better assessment of the combined agent results.

Series [3] relates to GBM multicellular tumor spheroid (MTS) culture (ATCC crl-2020).
From the text: as §1
A GBM multicellular tumor spheroid (MTS) culture plate was treated with moderately low concentrations of carmustine (50 μM dose); curcumin (20 μM dose); CAPE (20 μM dose); ABA (400 μM dose) and extract sample 19 (10 mg/mL dose). The treated cultures were incubated for 24 hours at 38° C. and assayed. The dosing conditions were designed to represent sub-optimal dosing conditions.
A GBM multicellular tumor spheroid (MTS) culture plate was treated with different two agent and three agent combinations including curcumin and extract sample 13; carmustine and extract sample 13; carmustine and curcumin; and carmustine and curcumin and extract sample 13. The agent concentrations were the same as in the single agent testing (carmustine (50 μM dose); curcumin (20 μM dose); CAPE (20 μM dose); ABA (400 μM dose) and extract sample 13 (10 mg/mL dose).
The treated cultures were incubated for 24 hours at 38° C. and assayed. The dosing conditions were designed to represent sub-optimal dosing conditions.

Series [4] concerns Glioblastoma Multiforme (GBM). The note with it: cited from earlier work.
[5] abbreviates: Table 18, standard chemotherapeutics.
[6] abbreviates: Table 19, standard chemotherapeutics.
The mark [7] stands for this setting: GBM monolayer cell cultures, agent used alone.
[8] abbreviates: GBM MTS cell cultures, agent used alone.

Like-named read-outs stand apart in the source and are kept apart here.

For the compound `O=c1[nH]cc(F)c(=O)[nH]1` [5-fluorouracil], in series [1] (setting [5]), the “% dead cells” value is given as 55% and the “% live cells” value came to 45%. Also, in series [1] (setting [6]), the “% dead cells” value turned out to be 75% and the “% live cells” value worked out at 25%.

For `CC1=CC(=O)CC(C)(C)[C@@]1(O)/C=C/C(C)=C\C(=O)O` [ABA, abscisic acid], the “cytotoxicity of single agent in words” value in series [2] (setting [7]) and in series [3] (setting [8]) was “failed to produce significant cytotoxic responses” throughout. Moreover, the Viability in series [2] worked out at 100%.

As to `Nc1ccn([C@@H]2O[C@H](CO)[C@@H](O)C2(F)F)c(=O)n1` [Gemcitabine], in series [1] (setting [5]), the “% dead cells” value came out at 20% and the “% live cells” value is listed as 80%. In addition, in series [1] (setting [6]), the “% dead cells” value worked out at 95% and the “% live cells” value is listed as 5%.

For the compound `O=NN(CCCl)C(=O)NCCCl` [carmustine, 1,3-bis(2-chloroethyl)-1-nitrosourea], the “cytotoxicity of single agent in words” value in series [2] (setting [7]) and in series [3] (setting [8]) was “only low level cytotoxicity” in each case. The Viability in series [2] came out at 100%. Besides, the side effects result in series [4] (Intravenous administration) was “a decrease of bone marrow blood cells, lung damage and death”. For the same compound, the mean survival rate in series [4] (applied in time release fashion to the tumor site, from 11.6 months) is on record as 13.9 months.

Regarding `COc1cc(/C=C/C(=O)CC(=O)/C=C/c2ccc(O)c(OC)c2)ccc1O` [curcumin], the “cytotoxicity of single agent in words” value in series [2] and in series [3] was “failed to produce significant cytotoxic responses” in each case.

For caffeic acid phenyl ester [CAPE], the “cytotoxicity of single agent in words” value in series [2] (setting [7]) and in series [3] (setting [8]) was “failed to produce significant cytotoxic responses” each time. The Viability in series [2] is listed as 100%.

(Values after patent US8945635B2, “Formulations comprising extracts from primitive plant species (mosses, ferns and lichens) to treat and prevent cancers” (priority 2006, dated 2015).)
